Measured values taken from patent US20100123097A1, “Method for Making Carbonates and Esters” (SABIC […] IP BV, priority 2008, published 2010).

Conditions: after >20 h storage time in the solvents of the table
Experimental: Suitable reaction temperatures will typically be high enough to keep the solution or melt in the liquid form and not high enough to cause loss of the species 1, 2, 3, or 5 in FIGS. 1 and 2. The reaction temperature is less than 180° C., 160° C., 140° C. […] Higher reaction temperatures may be appropriate when more sterically hindered alcohols are used as reactants if longer reaction times are not acceptable.

COC(=O)c1ccccc1OC(=O)Oc1ccccc1C(=O)OC [BMSC, bismethyl salicyl carbonate]
Stability in these solvents (MS formation): no detectable MS formation
